test system: OB/OB MOUSE; experiment: Hypoglycemic activity in the ob/ob mouse; type: in vivo, mouse (C57 BL/6J-ob/ob); conditions: ob/ob mouse; dosed daily for five days; positive control ciglitazone 50 mg/kg; X = H; 7200 min
Excerpt: The present compounds of the formula (I) are readily adapted to clinical use as hypoglycemic or hypocholesterolemic agents. The activity required for the former clinical use is defined by the test for hypoglycemic effect in ob/ob mice by the following procedure:
Five to eight week old C57 BL/6J-ob/ob mice (obtained from Jackson Laboratory, Bar Harbor, Me.) were housed five per cage under standard animal care practices. After a one week acclimation period, the animals were weighed and 25 microliters of blood was collected via an ocular bleed prior to any treatment. The blood sample was immediately diluted 1:5 with saline containing 2.5 mg/ml sodium fluoride and 2% sodium heparin, and held on ice for metabolite analysis. […] Bull., vol. […] All drugs were administered in a vehicle consisting of 0.25% w/v methyl cellulose. On day 5, the animals were weighed again and bled (via the ocular route) for blood metabolite levels. The freshly collected samples were centrifuged for two minutes at […] at room temperature. The supernatant was analyzed for glucose, for example, by the ABA 200 Bichromatic Analyzer™*, using the A-gent™^1 glucose UV reagent system*^2 (hexokinase method) using 20, 60 and 100 mg/dl standards. Plasma glucose was then calculated by the equation,
Test compounds are reported in terms of % glucose normalization. For example, a glucose level which is the same as the positive control is reported as 100%.

Row | SMILES | ED50 (Present Invention, X = H): concentration required to give hypoglycemic activity equivalent to 50% of the positive control [mg/kg]
1 | Cc1oc(C2CCCCC2)nc1Cc1cc2cc(CC3SC(=O)NC3=O)ccc2o1 (stereo not drawn) [cyclohexyl, X = H, 5-[(2-(2-cyclohexyl-5-methyl-4-oxazolyl)methyl)-5-benzofuranylmethyl]-2,4-thiazolidinedione] | 0.05
2 | Cc1oc(-c2cccc(F)c2)nc1Cc1cc2cc(CC3SC(=O)NC3=O)ccc2o1 (stereo not drawn) [m-fluorophenyl, X = H, 5-[(2-(2-(3-fluorophenyl)-5-methyl-4-oxazolyl)methyl)-5-benzofuranylmethyl]-2,4-thiazolidinedione] | 0.05
3 | Cc1cccc(-c2nc(Cc3cc4cc(CC5SC(=O)NC5=O)ccc4o3)c(C)o2)c1 (stereo not drawn) [m-methylphenyl, X = H, 5-[(2-(5-methyl-2-(3-methylphenyl)-4-oxazolyl)-methyl)-5-benzofuranylmethyl]2,4-thiazolidinedione] | < 0.005
4 | Cc1oc(-c2ccccc2F)nc1Cc1cc2cc(CC3SC(=O)NC3=O)ccc2o1 (stereo not drawn) [o-fluorophenyl, X = H, 5-[(2-(2-(2-fluorophenyl)-5-methyl-4-oxazolyl)methyl)-5-benzofuranylmethyl]-2,4-thiazolidinedione] | 0.01
5 | Cc1ccccc1-c1nc(Cc2cc3cc(CC4SC(=O)NC4=O)ccc3o2)c(C)o1 (stereo not drawn) [o-methylphenyl, X = H] | 0.05
6 | Cc1oc(-c2ccc(Cl)cc2)nc1Cc1cc2cc(CC3SC(=O)NC3=O)ccc2o1 (stereo not drawn) [p-chlorophenyl, X = H, 5-[(2-(2-(4-chlorophenyl)-5-methyl-4-oxazolyl)methyl)-5-benzofuranylmethyl]-2,4thiazolidinedione] | 0.05
7 | Cc1ccc(-c2nc(Cc3cc4cc(CC5SC(=O)NC5=O)ccc4o3)c(C)o2)cc1 (stereo not drawn) [p-methylphenyl, X = H, 5-[(2-(5-methyl-2-(4-methylphenyl)-4-oxazolyl)-methyl)-5-benzofuranylmethyl]-2,4-thiazolidinedione] | 0.05
8 | Cc1oc(-c2ccccc2)nc1Cc1cc2cc(CC3SC(=O)NC3=O)ccc2o1 (stereo not drawn) [phenyl, X = H, 5-[(2-(5-Methyl-2-phenyl-4-oxazolyl)methyl)-5-benzofuranylmethyl]-2,4-thiazolidinedione] | 0.01
9 | Cc1oc(C(C)(C)C)nc1Cc1cc2cc(CC3SC(=O)NC3=O)ccc2o1 (stereo not drawn) [tert-butyl, X = H, 5-[(2-(5-methyl-2-(1,1-dimethylethyl)-4-oxazolyl)-methyl)-5-benzofuranylmethyl]-2,4-thiazolidinedione] | 0.10

same assay, conditions: ob/ob mouse; dosed daily for five days; positive control ciglitazone 50 mg/kg; X = OH; 7200 min

Row | SMILES | ED50 (EP 299620A, X = OH): concentration required to give hypoglycemic activity equivalent to 50% of the positive control [mg/kg]
10 | Cc1oc(-c2cccc(F)c2)nc1C(O)c1cc2cc(CC3SC(=O)NC3=O)ccc2o1 (stereo not drawn) [m-fluorophenyl, X = OH, reference compound] | 0.50
11 | Cc1cccc(-c2nc(C(O)c3cc4cc(CC5SC(=O)NC5=O)ccc4o3)c(C)o2)c1 (stereo not drawn) [m-methylphenyl, X = OH, reference compound] | 0.05 to 0.1
12 | Cc1oc(-c2ccccc2F)nc1C(O)c1cc2cc(CC3SC(=O)NC3=O)ccc2o1 (stereo not drawn) [o-fluorophenyl, X = OH, reference compound] | 0.50
13 | Cc1ccccc1-c1nc(C(O)c2cc3cc(CC4SC(=O)NC4=O)ccc3o2)c(C)o1 (stereo not drawn) [o-methylphenyl, X = OH, reference compound] | > 1
14 | Cc1oc(-c2ccccc2)nc1C(O)c1cc2cc(CC3SC(=O)NC3=O)ccc2o1 (stereo not drawn) [phenyl, X = OH, 5-[(2-(5-Methyl-2-phenyl-4-oxazolyl)hydroxymethyl)-5-benzofuranylmethyl]-2,4-thiazolidinedione, reference compound] | 0.25

same assay, conditions: positive control (50 mg/kg) of ciglitazone, daily for five days; vehicle e.g. 250 mg/dl

Row | SMILES | glucose level of positive control animals [mg/dL]
15 | CC1(COc2ccc(CC3SC(=O)NC3=O)cc2)CCCCC1 (stereo not drawn) [positive control, ciglitazone, reference compound] | ~130

— patent US5401761A, “Thiazolidinedione hypoglycemic agents” (Pfizer, Inc., priority 1993, dated 1995)
